Assay results reported in publication PMC4105752 (RNA, 2014).
pKd: −log10 of the molar value.

Target: T1, TbEIF4E5 (TbE5) (Trypanosoma brucei, UniProt Q38B99)
T1 sequence (Q38B99 1-195): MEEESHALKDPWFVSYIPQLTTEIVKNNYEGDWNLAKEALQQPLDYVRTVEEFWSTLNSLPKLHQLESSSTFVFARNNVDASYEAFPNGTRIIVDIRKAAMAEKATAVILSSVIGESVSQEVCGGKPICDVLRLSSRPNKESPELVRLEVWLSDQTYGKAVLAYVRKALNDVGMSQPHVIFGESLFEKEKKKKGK
Experiment: intrinsic protein fluorescence quenching titration
Type: binding

| pKd | Compound | Kas (50 mM HEPES/KOH pH 7.2, 100 mM KCl, 0.5 mM EDTA, 2 mM DTT, 20 °C) |
| --- | --- | --- |
| 5.08 | C[n+]1cn([C@@H]2O[C@H](COP(=O)(O)OP(=O)(O)OP(=O)(O)OC[C@H]3O[C@@H](n4cnc5c(N)ncnc54)[C@H](O)[C@@H]3O)[C@@H](O)[C@H]2O)c2nc(N)[nH]c(=O)c21 [m^7GpppA] |  |
| 5.81 | C[n+]1cn([C@@H]2O[C@H](COP(=O)(O)OP(=O)(O)OP(=O)(O)O)[C@@H](O)[C@H]2O)c2nc(N)[nH]c(=O)c21 [m^7GTP] |  |
|  | cap 4 | 0.55 ± 0.01 |
| ~4.57 | Nc1nc2c(ncn2[C@@H]2O[C@H](COP(=O)(O)OP(=O)(O)OP(=O)(O)O)[C@@H](O)[C@H]2O)c(=O)[nH]1 [GTP] |  |
